According to patent US6632806B1, “Neurologically-active compounds” (The University of Sydney, priority 1997, dated 2003):
Where “and” joins values, the source holds several entries; their conditions need not be identical. Equal entries are not always repeated. Where two headings read alike, the source gives them in different places.

Columns and labels:
GABAA [1] = conditions: cited from earlier work
[2] = system: NMDA, benzodiazepine, quisqualate, kainate, muscarinic cholinergic, adrenergic, serotoninergic and histaminergic receptors; conditions: 1 mM; cited from earlier work
GABAA [3] = system: T1, GABAA; conditions: [3H]muscimol binding (Froestl et al, 1995a; 1995b); read-out: GABAA receptor affinity, IC50; cited from earlier work
T1 construct: Activity at GABAA; other: Woodward et al, 1993; GABAA Kb; other: Ragozzino et al (1996); other: PMPA; source not given, column fo

[4] = biological target: human r1 receptors (GABAC receptors) (Homo sapiens, UniProt P24046); assay: Two-electrode voltage clamp recording of human r1 GABAC receptors expressed in Xenopus oocytes; conditions: for Activation of the receptor by compound alone / Effect on GABA response when co-applied with GABA (1 μM): 100 μM, FIG. 1; for IC50: IC50 (concentration that inhibits 50% of the response produced by 1 μM GABA), 1 μM GABA; for Mode of antagonism: Schild analysis; for Effect as agonist or antagonist at GABAC receptors: screened at 100 μM
Sequence of human r1 receptors (GABAC receptors) (P24046 22-479): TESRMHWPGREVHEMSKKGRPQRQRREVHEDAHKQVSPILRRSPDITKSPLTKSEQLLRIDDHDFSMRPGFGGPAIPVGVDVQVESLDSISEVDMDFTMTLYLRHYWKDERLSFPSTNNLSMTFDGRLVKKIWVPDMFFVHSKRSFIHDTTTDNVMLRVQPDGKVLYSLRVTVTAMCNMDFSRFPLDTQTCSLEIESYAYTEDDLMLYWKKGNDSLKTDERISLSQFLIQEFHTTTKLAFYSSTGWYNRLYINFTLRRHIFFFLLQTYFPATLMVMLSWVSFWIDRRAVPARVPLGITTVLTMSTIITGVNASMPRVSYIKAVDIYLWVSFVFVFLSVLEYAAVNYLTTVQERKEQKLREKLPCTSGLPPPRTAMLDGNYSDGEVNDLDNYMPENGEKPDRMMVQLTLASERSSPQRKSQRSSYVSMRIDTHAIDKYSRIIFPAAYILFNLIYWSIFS
Description: The plasmid was linearized with XbaI and cRNA made using the “Message Machine” kit from Ambion Inc. (Austin, Tex., USA). 50 ng of cRNA was injected into defolliculated Stage V Xenopus oocytes. Two to seven days later, receptor activity was measured by two-electrode voltage clamp recording, using a Geneclamp 500 amplifier (Axon Instruments Inc., Foster City, Calif., USA) and a MacLab 2e recorder (ADInstruments, Sydney, NSW, Australia). […] For receptor activation measurements, the indicated concentrations of agonist and antagonist were added to ND96.

human rho-2 receptors = human rho-2 receptors (Homo sapiens, UniProt P28476); assay: Antagonist KB at human homo-oligomeric rho-2 GABAC receptors; assay type: cell-based
Sequence of human rho-2 receptors (P28476 21-465): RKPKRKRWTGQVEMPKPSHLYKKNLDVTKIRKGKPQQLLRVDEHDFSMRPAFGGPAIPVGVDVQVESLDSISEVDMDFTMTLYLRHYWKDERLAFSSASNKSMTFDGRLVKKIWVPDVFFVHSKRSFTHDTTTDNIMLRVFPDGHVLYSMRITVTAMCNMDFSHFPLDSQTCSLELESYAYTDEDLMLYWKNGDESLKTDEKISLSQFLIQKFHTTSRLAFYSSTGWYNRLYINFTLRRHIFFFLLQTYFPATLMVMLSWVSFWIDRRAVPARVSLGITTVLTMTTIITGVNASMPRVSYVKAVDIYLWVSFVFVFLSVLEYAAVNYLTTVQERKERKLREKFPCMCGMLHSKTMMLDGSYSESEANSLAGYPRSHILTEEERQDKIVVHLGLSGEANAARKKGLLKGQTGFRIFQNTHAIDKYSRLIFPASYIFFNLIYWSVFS

chicks = assay: Memory consolidation in chicks, anthranilate-coated bead discrimination; assay type: in vivo, chick
Description: This procedure trains each chick on anthranilate-coated red beads, which have a bitter taste. In the test, 120 min. after the initial exposure to the red bead each chick is presented with a blue and a red bead, and normally will avoid pecking at the red bead; the discrimination ratio measures how well it remembers to do this. Chicks trained on 100% anthranilate-coated beads produce a discrimination ratio better than 0.9, and drug-induced memory deficits can be detected in this group. However, chicks trained on 20% anthranilate-coated beads produce a discrimination ratio of around 0.6, and this group can be used to detect drug-induced memory enhancement. Drugs are delivered by two bilateral intracranial injections (10 μL each).

male Swiss mice = assay: Elevated plus-maze memory test; assay type: in vivo
Description: In this assay mice are trained by placing them at the end of the open arm of the plus maze and allowing them to find the shelter of the closed arms. The time taken is measured as the ‘latency’. Immediately after the trial the mice are injected with the test drug or with a saline control. […]

GABAA [5] = system: T1, GABAA; conditions: Ragozzino et al (1996); cited from earlier work
GABAC (human r1) = biological target: T2, GABAC (human r1) (Homo sapiens, UniProt P24046); conditions: cited from earlier work
T2 construct: host or cells: Xenopus oocytes expressing human r1 mRNA
T2 sequence (P24046 22-479): as the sequence (P24046 22-479) above

GABAB [6] = biological target: T3, GABAB (Rattus norvegicus, UniProt Q9Z0U4); parameters: from tissue; host or cells: hippocampal slices (pyramidal neurons); conditions: bicuculline 20 μM; Ragozzino et al (1996); cited from earlier work
Target sequence in this assay (Q9Z0U4 20-960): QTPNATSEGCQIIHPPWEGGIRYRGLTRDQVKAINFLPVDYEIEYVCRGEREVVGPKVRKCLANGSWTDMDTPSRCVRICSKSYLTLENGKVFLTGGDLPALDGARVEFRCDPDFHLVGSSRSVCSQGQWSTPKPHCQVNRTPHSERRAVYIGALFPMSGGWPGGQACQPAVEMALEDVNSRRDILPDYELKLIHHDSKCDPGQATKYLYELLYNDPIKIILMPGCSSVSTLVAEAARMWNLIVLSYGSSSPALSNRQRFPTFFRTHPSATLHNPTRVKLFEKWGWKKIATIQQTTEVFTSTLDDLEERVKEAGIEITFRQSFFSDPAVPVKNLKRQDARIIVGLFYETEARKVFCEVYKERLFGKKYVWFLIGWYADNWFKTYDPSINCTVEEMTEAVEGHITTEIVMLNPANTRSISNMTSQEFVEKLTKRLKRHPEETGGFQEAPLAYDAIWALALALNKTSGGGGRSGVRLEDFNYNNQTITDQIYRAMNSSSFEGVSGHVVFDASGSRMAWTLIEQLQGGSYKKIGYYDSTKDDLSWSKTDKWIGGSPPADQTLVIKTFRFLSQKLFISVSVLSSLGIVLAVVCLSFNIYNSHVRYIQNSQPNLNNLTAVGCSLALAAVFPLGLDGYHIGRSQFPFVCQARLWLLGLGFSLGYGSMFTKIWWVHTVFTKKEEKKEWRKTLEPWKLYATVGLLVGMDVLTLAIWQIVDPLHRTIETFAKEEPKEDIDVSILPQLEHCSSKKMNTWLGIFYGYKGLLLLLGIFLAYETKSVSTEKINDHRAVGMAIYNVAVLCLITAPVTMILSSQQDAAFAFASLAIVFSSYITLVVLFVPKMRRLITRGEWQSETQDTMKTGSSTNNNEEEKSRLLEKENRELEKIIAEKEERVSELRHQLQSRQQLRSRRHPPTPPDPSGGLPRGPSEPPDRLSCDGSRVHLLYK
Target sequence in this assay (O88871 41-940 partner): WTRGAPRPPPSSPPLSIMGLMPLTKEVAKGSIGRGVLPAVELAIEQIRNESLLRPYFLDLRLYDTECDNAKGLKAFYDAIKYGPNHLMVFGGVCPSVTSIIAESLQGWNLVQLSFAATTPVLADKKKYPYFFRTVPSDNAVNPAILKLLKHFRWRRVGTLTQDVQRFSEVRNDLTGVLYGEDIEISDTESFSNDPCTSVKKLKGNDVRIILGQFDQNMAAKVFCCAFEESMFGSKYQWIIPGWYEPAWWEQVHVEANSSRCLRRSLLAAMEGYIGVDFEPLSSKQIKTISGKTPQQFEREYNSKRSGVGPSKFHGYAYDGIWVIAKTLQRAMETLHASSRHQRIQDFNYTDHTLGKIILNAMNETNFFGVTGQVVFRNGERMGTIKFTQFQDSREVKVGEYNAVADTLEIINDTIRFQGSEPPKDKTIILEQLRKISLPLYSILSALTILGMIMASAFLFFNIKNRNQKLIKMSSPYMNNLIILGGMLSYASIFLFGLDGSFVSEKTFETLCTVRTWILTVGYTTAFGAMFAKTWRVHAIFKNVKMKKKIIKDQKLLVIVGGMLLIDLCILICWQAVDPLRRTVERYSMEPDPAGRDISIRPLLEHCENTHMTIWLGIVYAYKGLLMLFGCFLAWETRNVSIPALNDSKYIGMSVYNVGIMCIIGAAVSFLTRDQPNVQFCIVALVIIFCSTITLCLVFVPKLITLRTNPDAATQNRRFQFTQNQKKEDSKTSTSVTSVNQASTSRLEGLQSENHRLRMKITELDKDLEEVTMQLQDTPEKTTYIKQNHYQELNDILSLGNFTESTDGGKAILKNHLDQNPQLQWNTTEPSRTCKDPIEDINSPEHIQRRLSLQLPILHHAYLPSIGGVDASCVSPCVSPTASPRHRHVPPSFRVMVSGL

GABAC receptors = conditions: Woodward et al, 1993; read-out: KB (antagonist); cited from earlier work
GABAB [7] = biological target: T3, GABAB; parameters: from tissue; host or cells: rat cortical membranes / neocortical slices; values largely from the literature; conditions: [3H]CGP27492 binding (Froestl et al; Bittiger et al; Olpe et al); read-out: GABAB receptor affinity, IC50; cited from earlier work
Target sequence in this assay (Q9Z0U4 17-960 limits assumed): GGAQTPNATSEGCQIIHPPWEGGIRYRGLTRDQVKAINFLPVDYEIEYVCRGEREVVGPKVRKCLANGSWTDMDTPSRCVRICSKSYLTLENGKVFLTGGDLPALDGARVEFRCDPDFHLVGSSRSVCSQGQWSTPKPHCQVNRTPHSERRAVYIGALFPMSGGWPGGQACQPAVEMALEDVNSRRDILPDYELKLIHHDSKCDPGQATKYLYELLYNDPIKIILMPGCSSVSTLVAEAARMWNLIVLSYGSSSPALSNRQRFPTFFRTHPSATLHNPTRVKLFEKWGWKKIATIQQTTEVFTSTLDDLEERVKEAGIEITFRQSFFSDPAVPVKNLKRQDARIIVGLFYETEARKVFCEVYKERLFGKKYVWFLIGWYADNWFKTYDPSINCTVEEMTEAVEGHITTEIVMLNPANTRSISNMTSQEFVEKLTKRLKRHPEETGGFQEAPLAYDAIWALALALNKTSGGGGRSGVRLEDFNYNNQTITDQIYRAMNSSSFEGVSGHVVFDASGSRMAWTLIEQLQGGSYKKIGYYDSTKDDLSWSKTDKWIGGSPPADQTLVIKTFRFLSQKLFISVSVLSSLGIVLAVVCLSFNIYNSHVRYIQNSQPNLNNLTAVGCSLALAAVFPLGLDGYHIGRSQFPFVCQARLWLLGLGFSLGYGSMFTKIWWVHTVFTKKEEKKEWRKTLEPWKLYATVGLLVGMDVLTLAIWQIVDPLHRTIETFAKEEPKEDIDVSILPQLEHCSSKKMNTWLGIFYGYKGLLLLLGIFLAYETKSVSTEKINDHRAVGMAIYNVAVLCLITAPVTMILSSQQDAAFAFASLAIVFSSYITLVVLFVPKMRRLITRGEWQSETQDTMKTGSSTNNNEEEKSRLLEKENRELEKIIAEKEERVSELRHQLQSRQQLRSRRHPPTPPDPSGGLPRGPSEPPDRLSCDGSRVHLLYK
Target sequence in this assay (O88871 41-940 partner): as the sequence (O88871 41-940 partner) above

[8] = Murata et al, 1996, Ragozzino et al

For `CCCCP(=O)(O)CCCN` [CGP36742, (3-aminopropyl)-n-butylphosphinic acid], the IC50 (GABAA [1]) is given as 500 µM and the “Effect at other receptor types” value [2] is given as “no effect”.

In the case of `NC/C=C/[PH](=O)O` [CGP38593, [(E)-3-aminopropen-1-yl]phosphinic acid], the IC50 (GABAA [3]) is listed as 6.8 µM, the “Activation of Cl− channel current by compound on its own” value (“Activation of Cl− channel current” below) [4] is listed as “did not activate any current on their own” and the Kb [4] is listed as 15.5 ± 1.7 µM. The “Slope of Schild Plot” value [4] was 0.95, the “nH (Hill Coefficient)” value [4] was 1.8 ± 0.4 and the “Activation of the receptor by compound alone” value [4] was “do not activate the receptor”. The “Effect on GABA response when co-applied with GABA (1 μM)” value [4] was “the GABA response is blocked or reduced”, the IC50 [4] was 7.7 µM and 7.68 µM and the Mode of antagonism [4] was “competitive antagonists”. The “nH of GABA curve in the presence of antagonist” value (shortened to “nH of GABA curve”) ([4]; [Antagonist] 30 μM) was 2.7 ± 0.1, the “nH of GABA curve” value ([4]; [Antagonist] 60 μM) was 2.5 ± 0.4 and the “nH of GABA curve” value ([4]; [Antagonist] 100 μM) was 3.0 ± 0.1.

With `CP(=O)(O)C1=CCNCC1` [TPMPA] the “Potency at blocking rho-2 receptors relative to rho-1 GABAC receptors” value (human rho-2 receptors; human homo-oligomeric receptors) was “an order of magnitude less potent”, the Kb (human rho-2 receptors; human rho-2) was 15.6 ± 1.6 µM and the “Effect on memory (discrimination ratio)” value (chicks; 30 μM, intracranial injection, chicks trained with 20% anthranilate) was “enhances memory”. The “Time of injection after training giving optimum effect” value (chicks; in vivo) was at most 2.5 min, the Effect on latency (male Swiss mice; 50 mg/Kg, repeat experiment, tested only after 14 days, Swiss mice from a different source) was “significantly reduced latency” and the Effect on latency (male Swiss mice; 200 mg/Kg, first experiment, 14 day test) was “significantly reduces the latency”. The Kb (GABAA [5]) was 320 µM, the Kd (GABAC (human r1); Murata et al, 1996, Ragozzino et al, 1996, read-out: KD, GABAC receptor antagonist activity) was 2100 nM and the “Selectivity as antagonist for GABAC receptors over GABAB receptors” value (GABAC (human r1); [8]) was “more than 100 fold”. For the same compound, the “Selectivity at GABAC receptors over GABAA receptors” value (GABAC (human r1); [8]) was 500 fold, the Kb (GABAC (human r1); data from Murata et al, 1996) was 2100 nM and the IC50 (GABAC (human r1); read-out: Concentration producing 50% inhibition of GABAC receptor activation) was 2100 nM. The EC50 (GABAB [6]) was about 500 µM and the Kb [4] was 2 ± 0.4 µM.

In the case of `NCCC[PH](=O)O` [CGP27492, 3-aminopropylphosphinic acid], the IC50 (GABAA [3]) is given as 1.7 µM, the Kb (GABAC receptors) is given as 1800 nM and the “Activation of Cl− channel current” value [4] is given as “did not activate any current on their own”. For the same compound, the Kb [4] was 3.2 ± 1 µM, the “Slope of Schild Plot” value [4] was 0.99 and the “nH (Hill Coefficient)” value [4] was 1.9 ± 0.2. The IC50 [4] was 2.47 ± 0.04 µM, the Mode of antagonism [4] was “competitive antagonists” and the “nH of GABA curve” value ([4]; [Antagonist] 10 μM) was 2.3 ± 0.1. For the same compound, the “nH of GABA curve” value ([4]; [Antagonist] 30 μM) was 2.4 ± 0.3 and the “nH of GABA curve” value ([4]; [Antagonist] 100 μM) was 2.5 ± 0.2.

In the case of `NCCCC(=O)O` [GABA, γ-Aminobutyric acid], the “Activation of Cl− channel current” value [4] is reported as “activated the Cl^− channel” and the “nH (Hill Coefficient)” value [4] is reported as 2.6 ± 0.2.

For `CP(=O)(O)/C=C\CN` [CGP70523, [(Z)-3-aminopropen-1-yl]methylphosphinic acid], the IC50 (GABAA [3]) is listed as 242 µM, the “Activation of Cl− channel current” value [4] is listed as “did not activate any current on their own” and the “nH (Hill Coefficient)” value [4] is listed as 1.6 ± 0.1. For the same compound, the “Activation of the receptor by compound alone” value [4] was “do not activate the receptor”, the “Effect on GABA response when co-applied with GABA (1 μM)” value [4] was “the GABA response is blocked or reduced” and the IC50 [4] was 38.9 µM and 38 µM. The Mode of antagonism [4] was “competitive antagonists” and the IC50 (GABAB [7]) was 16 µM.

With `CCOC(OCC)P(=O)(O)CCCN` [CGP35348, 3-aminopropyl(diethoxymethyl)phosphinic acid] the “Effect as agonist or antagonist at GABAC receptors” value (“Effect as agonist or antagonist” for short) [4] was “no effect as either agonists or antagonists”.

For `C[C@H](NC[C@@H](O)CP(=O)(O)Cc1ccccc1)c1ccc(Cl)c(Cl)c1` [CGP55845A], the “Effect as agonist or antagonist” value [4] was “no effect as either agonists or antagonists”.

In the case of `NC[C@H](O)CP(=O)(O)CC1CCCCC1` [CGP51176, (2S)-3-amino-2-hydroxypropyl(cyclohexylmethyl)phosphinic acid], the “Effect as agonist or antagonist” value [4] is reported as “no effect as either agonists or antagonists”.
